Measurements taken from patent US20260184675A1, “CHIRAL ISOMERIC SULFITE COMPOUND AND APPLICATION THEREOF” (Chengdu Hanova BioSciences Co., Ltd, priority 2024, published 2026).

What was measured:
[1] = test system: eggs of Thrips; test: Effect on hatching of eggs of Thrips, leaf disc method; type: in vivo; conditions: 100 ppm; for Hatching rate (%): 5 days after insecticide delivery
Summary of the method: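 Thrip egg hatching was tested by the leaf disc method on Vicia faba discs 2.0 cm across, placed over wetted filter paper. Egg numbers on each disc were counted under a microscope before treatment. Discs were then dipped for 10 seconds in clean water or a compound solution at 100 ppm. They were kept moist under normal conditions, and hatching was surveyed five days after insecticide delivery.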

[2] = test system: eggs of Aleyrodidae; test: Effect on hatching of eggs of Aleyrodidae, leaf disc method; type: in vivo; conditions: 10 ppm; for Hatching rate (%), Replicate 1 / Hatching rate (%), Replicate 2 / Hatching rate (%), Replicate 3 / Number of hatched larvae 5 days after insecticide delivery, Replicate 1 / Number of hatched larvae 5 days after insecticide delivery, Replicate 2 / Number of hatched larvae 5 days after insecticide delivery, Replicate 3: Aleyrodidae eggs; for Hatching rate (%), Replicate 1 / Hatching rate (%), Replicate 2 / Hatching rate (%), Replicate 3: 5 days after delivery; for Number of hatched larvae 5 days after insecticide delivery, Replicate 1 / Number of hatched larvae 5 days after insecticide delivery, Replicate 2 / Number of hatched larvae 5 days after insecticide delivery, Replicate 3: leaf disc
Summary of the method: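 Inhibition of Aleyrodidae egg hatching was tested with a leaf disc method at 10 ppm. Egg numbers on each disc were counted under a microscope before treatment. Discs bearing eggs were soaked for 10 seconds in clear water or test solution, removed, and kept under moist conditions. Hatching was checked five days after insecticide delivery and hatched larvae were counted.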

[3] = test system: eggs of Spodoptera litura; test: Effect on hatching of eggs of Spodoptera litura, egg piece soaking; type: in vivo; conditions: Spodoptera litura eggs, 500 ppm; for Hatching rate (%), Replicate 1 / Hatching rate (%), Replicate 2 / Hatching rate (%), Replicate 3: 4 days after delivery; for Number of unhatched larvae 4 days after insecticide delivery, Replicate 1 / Number of unhatched larvae 4 days after insecticide delivery, Replicate 2 / Number of unhatched larvae 4 days after insecticide delivery, Replicate 3: soaked 10 minutes
Summary of the method: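 Egg pieces of about 60 eggs were soaked 10 min in test agent at 500 ppm, blotted, then held singly at 24±1 °C, 80±10% RH, 12:12 L:D. Hatched and unhatched eggs were counted on day 4 to give hatching rate and control effect; 3 replicates.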

[4] = test system: eggs of Harmonia axyridis; test: Effect on hatching of eggs of Harmonia axyridis, egg card immersion; type: in vivo; conditions: 100 ppm; for Number of hatched larvae 4 days after insecticide delivery, Replicate 1 / Number of hatched larvae 4 days after insecticide delivery, Replicate 2 / Number of hatched larvae 4 days after insecticide delivery, Replicate 3: Harmonia axyridis egg cards, immersed 30 seconds; for Hatching rate (%), Replicate 1 / Hatching rate (%), Replicate 2 / Hatching rate (%), Replicate 3: Harmonia axyridis eggs, 4 days after delivery
Summary of the method: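 Egg cards (~20 eggs each) dipped 30 s in 100 ppm insecticide, air dried and kept moist at 27° C; 5 cards per treatment, 3 replicates. Hatching assessed 4 days after treatment against pre-treatment egg counts, and control effect calculated by formula.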

[5] = test system: Magnaporthe grisea; type: cell-based; conditions: 100 ppm; for Average antifungal rate (%) / Antifungal rate of Magnaporthe grisea (%), Replicate 1 / Antifungal rate of Magnaporthe grisea (%), Replicate 2 / Antifungal rate of Magnaporthe grisea (%), Replicate 3: 96-well plate; for Average antifungal rate (%): average of 3 replicates

| SMILES | inhibitory activity on the hatching of eggs of Thrips (in words) [1] | Hatching rate (%) ([1]; Replicate 1) | Hatching rate (%) ([1]; Replicate 2) | Hatching rate (%) ([1]; Replicate 3) | Number of hatched larvae 5 days after insecticide delivery ([1]; Replicate 1) | Number of hatched larvae 5 days after insecticide delivery ([1]; Replicate 2) | Number of hatched larvae 5 days after insecticide delivery ([1]; Replicate 3) | inhibitory activity on the hatching of eggs of Aleyrodidae (in words) [2] | Hatching rate (%), Replicate 1 [2] | Hatching rate (%), Replicate 2 [2] | Hatching rate (%), Replicate 3 [2] | Number of hatched larvae 5 days after insecticide delivery, Replicate 1 [2] | Number of hatched larvae 5 days after insecticide delivery, Replicate 2 [2] | Number of hatched larvae 5 days after insecticide delivery, Replicate 3 [2] | Hatching rate (%), Replicate 1 [3] | Hatching rate (%), Replicate 2 [3] | Hatching rate (%), Replicate 3 [3] | Number of unhatched larvae 4 days after insecticide delivery, Replicate 1 [3] | Number of unhatched larvae 4 days after insecticide delivery, Replicate 2 [3] | Number of unhatched larvae 4 days after insecticide delivery, Replicate 3 [3] | other results |
| --- | --- | --- | --- | --- | --- | --- | --- | --- | --- | --- | --- | --- | --- | --- | --- | --- | --- | --- | --- | --- | --- |
| CC(COc1ccc(Cl)cc1Cl)OS(=O)OCCF (stereo not shown) [Compound 1′] | strong inhibitory activities | 0.00% | 0.00% | 0.97% | 0 | 0 | 1 | strong inhibitory activities | 1.87% | 0.00% | 1.14% | 2 | 0 | 1 | 40.68% | 40.32% | 39.06% | 35 | 37 | 39 | inhibitory activity on the hatching of eggs of Harmonia axyridis (in words) [4]: strong inhibitory activities; Number of hatched larvae 4 days after insecticide delivery, Replicate 1 [4]: 6; Number of hatched larvae 4 days after insecticide delivery, Replicate 2 [4]: 4; Number of hatched larvae 4 days after insecticide delivery, Replicate 3 [4]: 7; Hatching rate (%), Replicate 1 [4]: 5.88%; Hatching rate (%), Replicate 2 [4]: 4.17%; Hatching rate (%), Replicate 3 [4]: 6.60%; inhibitory rate against Magnaporthe grisea (in words) [5]: strong inhibitory rate; Average antifungal rate (%) [5]: 94.28%; Antifungal rate of Magnaporthe grisea (%), Replicate 1 [5]: 95.78%; Antifungal rate of Magnaporthe grisea (%), Replicate 2 [5]: 98.76%; Antifungal rate of Magnaporthe grisea (%), Replicate 3 [5]: 88.30% |
| CC(C)(COc1ccc(Cl)cc1Cl)OS(=O)OCCF (stereo not shown) [Compound 10] | strong inhibitory activities | 0.99% | 0.00% | 0.00% | 1 | 0 | 0 | strong inhibitory activities | 0.76% | 0.00% | 1.61% | 1 | 0 | 2 | 41.27% | 40.98% | 42.11% | 37 | 36 | 33 | inhibitory activity on the hatching of eggs of Harmonia axyridis (in words) [4]: strong inhibitory activities; Number of hatched larvae 4 days after insecticide delivery, Replicate 1 [4]: 4; Number of hatched larvae 4 days after insecticide delivery, Replicate 2 [4]: 3; Number of hatched larvae 4 days after insecticide delivery, Replicate 3 [4]: 7; Hatching rate (%), Replicate 1 [4]: 4.04%; Hatching rate (%), Replicate 2 [4]: 3.85%; Hatching rate (%), Replicate 3 [4]: 5.56%; inhibitory rate against Magnaporthe grisea (in words) [5]: strong inhibitory rate; Average antifungal rate (%) [5]: 94.26%; Antifungal rate of Magnaporthe grisea (%), Replicate 1 [5]: 93.89%; Antifungal rate of Magnaporthe grisea (%), Replicate 2 [5]: 94.52%; Antifungal rate of Magnaporthe grisea (%), Replicate 3 [5]: 94.36% |
